Test results taken from US10800815B2, “Kv1.3 potassium channel antagonists” (cgtx-Peptide Development GmbH, priority 2014, dated 2020).
Entries after “also recorded” stand apart in the source; their conditions may differ.

Experiments:
[1] = test system: antigen induced arthritis (AIA); experiment: Antigen induced arthritis (AIA) rat model, knee joint swelling; assay type: in vivo; details: for effect on knee swelling, curative treatment: 1 mg/kg BW i.v. daily, start on day 0 or day 1, vs vehicle
[2] = molecular target: T1, human Kv1.3 (hKv1.3) channel (Homo sapiens, UniProt P22001); experiment: Planar patch clamp (Port-A-Patch) of Kv1.3 potassium currents in Sf 21 cells (Example 1); assay type: cell-based
T1 construct: expressed in transfected cells; host or cells: Sf21 (Spodoptera frugiperda) insect cells, baculovirus infection
Experimental: Potassium currents were measured by use of Spodoptera frugiperda (Sf 21) cells, which express the human Kv1.3 (hKv1.3) channel. The channel activity is induced upon membrane depolarization to voltages more positive than −40 mV. […] In Sf 21 cells hKv1.3 has an average current amplitude between 250 pA-5 nA at +40 mV.
1-3 days after infection potassium currents were recorded with the planar patch clamp technique, using the Port-A-Patch (Nanion Technologies GmbH). Ionic currents were activated by voltage steps to a depolarizing potential of +40 mV for 200 ms.
Sf 21 cells were cultured in Grace's insect cell medium supplemented with 10% FBS (Fetal Bovine Serum), 2 mM Glutamine, 1×Yeastolate (from 50× stock solution) and 0.1% Pluronic® F68 (BASF) to a cell density of 2-3×10^6 cells/ml.
External buffer: 160 mM NaCl • 4.5 mM KCl • 1 mM MgCl2 • 2 mM CaCl2 • 5 mM D-Glucose monohydrate • 10 mM HEPES/NaoH pH7.4
Internal buffer: 75 mM KCl • 10 mM NaCl • 70 mM K-Fluoride • 2 mM MgCl2 • 10 mM EGTA • 10 mM HEPES/KOH pH 7.2
(§1) Peptides were dissolved at 1 μg/μl in 20 mM NaPO4 buffer pH 8.2 (1 mg in 1 ml folding buffer) and dialysed against the same buffer 3×1 L, Float-a-Lyzer cut off 500 Da (Spectrapor) at room temperature.
HsTx 1 binding was tested at various concentrations of e.g. 100 pM, 1 nM, 10 nM, 50 nM, 100 nM, 500 nM, and 1 μM—depending on the tested channel. […]

[3] = Biochemical properties: isoelectric point; assay type: physicochemical
Kv1.1 = molecular target: T2, Kv1.1 (Homo sapiens, UniProt Q09470); experiment: Patch-clamp measurement of Kv1.1 channel inhibition (Example 1); assay type: cell-based; set-up: dose or concentration left out as unconfirmed
T2 construct: expressed in transfected cells; host or cells: Sf21 insect cells, baculovirus infection
Experimental: (§2) FIGS. 1A-1F Measurement of Kv1.3 (FIGS. 1B and 1E), Kv1.5 (FIGS. 1C and 1F) and Kv1.1 (FIGS. 1A and 1D) channel inhibition by patch-clamp.
as §1
(§3) HsTx 1 binding was tested at various concentrations of e.g. 100 pM, 1 nM, 10 nM, 50 nM, 100 nM, 500 nM, and 1 μM—depending on the tested channel. Representative measurements for Kv 1.1, Kv1.3 and Kv1.5 are depicted in FIGS. 1 a), 1 b), and 1 c) respectively.
(§4) Cgtx-544 binding was tested at various concentrations of e.g. 1 nM, 10 nM, 50 nM, 100 nM, 1 μM, and 5 μM—depending on the tested channel. Representative measurements for Kv1.1, Kv1.3 and Kv1.5 are depicted in FIGS. 1 d), 1e), and 1) f, respectively.

[4] = test system: white blood cells in peripheral blood; experiment: Haematology (WBC, neutrophil granulocytes, lymphocytes) in AIA rats; assay type: in vivo, rat
Experimental: For the blood withdrawal the animals were narcotized briefly, the tail was disinfected and the tail vein was punctured with a cannula, 50 μl of blood were withdrawn with a heparin coated pipette and mixed with 5 μl of a stabilising agent (CPD) and 1 μl heparin (1.5 U/μl diluted 1:4 in 0.9% NaCl).
White Blood Cells (WBC) were counted with a Coulter Counter in the automatic mode.
Blood samples were taken regularly for monitoring of hematological parameters. Haematological parameters were assessed in all animals weekly before induction, at day of induction and 10 days after induction (days −21, −14, −7, 0 and 10). […] Absolute counts of white blood cells (WBC), neutrophil granulocytes and lymphocytes were analyzed among others, the last two also stated in percentage of total WBC. EDTA whole blood of seven individuals from both vehicle and cgtx-544 peptide therapy group was measured with Sysmex XT-2000i.
For screening the state of health of all individuals, complete haemograms were used again. EDTA whole blood of seven individuals from both MTX high-dose and low-dose therapy groups were measured with Sysmex XT-2000i.V weekly before induction, at day of induction and 4 and 7 days after induction (day −21, −14, −7, 0, 4 and 7; MTX low-dose therapy group additionally on day −3, when i.v. application started).

Kv1.5 = molecular target: T3, Kv1.5 (Homo sapiens, UniProt P22460); experiment: Patch-clamp measurement of Kv1.5 channel inhibition (Example 1); assay type: cell-based; details: up to a concentration of 10 μM
T3 construct: expressed in transfected cells; host or cells: Sf21 insect cells, baculovirus infection
Experimental: as §2, §1, §3, §4

antibody formation = assay type: in vivo, rat
Experimental: FIG. 27 Analysis of mBSA specific antibodies. In the experimental groups H and I all animals have produced antibodies against the antigen mBSA during the immunization and AIA induction period.
The remaining swelling in treated animals was assumed to be due to antibody/antigen reactions. Therefore, immunized as well as naïve animals were tested for the presence of mBSA specific antibodies. Antibodies against mBSA could be detected in all immunized animals of groups H and I seven days after arthritis induction (FIG. 27).

in vivo = assay type: in vivo; details: rat, i.v., 750 μg/kg BW; listed as cgtx-544
Experimental: FIG. 34 Decrease of cgtx-544(Sing) in the serum of treated rats after i.v. injection. The concentration of unbound circulating cgtx-544(Sing) was calculated on the basis of a standard curve. Standard error of the mean is depicted in the error bars (n=6).
Rats received i.v. injections of cgtx-544(Sing) (750 μg/kg BW). Blood was withdrawn at time points 0, 1, 10 and 60 minutes. Subsequently, serum was prepared from blood samples. The cgtx-544 content in these samples was analyzed electrophysiologically by measuring the blocking effect on Kv1.3 channels expressed in CHO cells. […] In order to study the amount of unbound cgtx-544(Sing) in the rat, the amount of cgtx-544(Sing) present in the circulating blood at the time points referred above was calculated through a calibration curve. This calibration curve was obtained by adding known quantities of cgtx-544(Sing) to blood serum and subsequent electrophysiological measurements on Kv1.3 channels. The block of Kv1.3 currents by these spiked samples was similar to that obtained with cgtx-544(Sing) in the absence of serum (data not shown).

T1 sequence (P22001 whole entry): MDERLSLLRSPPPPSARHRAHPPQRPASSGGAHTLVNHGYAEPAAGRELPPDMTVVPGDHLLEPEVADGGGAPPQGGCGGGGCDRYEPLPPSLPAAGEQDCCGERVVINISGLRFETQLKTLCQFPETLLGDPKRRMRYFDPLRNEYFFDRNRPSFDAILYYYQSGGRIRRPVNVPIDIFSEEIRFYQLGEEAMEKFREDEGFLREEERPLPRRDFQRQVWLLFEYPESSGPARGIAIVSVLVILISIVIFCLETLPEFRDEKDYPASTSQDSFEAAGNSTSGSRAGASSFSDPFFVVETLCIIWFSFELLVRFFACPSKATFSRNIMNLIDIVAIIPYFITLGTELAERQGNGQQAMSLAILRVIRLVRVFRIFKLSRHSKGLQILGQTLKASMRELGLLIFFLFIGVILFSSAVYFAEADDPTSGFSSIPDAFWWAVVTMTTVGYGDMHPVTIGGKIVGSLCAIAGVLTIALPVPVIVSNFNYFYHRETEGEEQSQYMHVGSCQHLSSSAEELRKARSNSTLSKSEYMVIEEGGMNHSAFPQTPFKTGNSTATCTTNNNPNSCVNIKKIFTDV
T3 sequence (P22460 whole entry): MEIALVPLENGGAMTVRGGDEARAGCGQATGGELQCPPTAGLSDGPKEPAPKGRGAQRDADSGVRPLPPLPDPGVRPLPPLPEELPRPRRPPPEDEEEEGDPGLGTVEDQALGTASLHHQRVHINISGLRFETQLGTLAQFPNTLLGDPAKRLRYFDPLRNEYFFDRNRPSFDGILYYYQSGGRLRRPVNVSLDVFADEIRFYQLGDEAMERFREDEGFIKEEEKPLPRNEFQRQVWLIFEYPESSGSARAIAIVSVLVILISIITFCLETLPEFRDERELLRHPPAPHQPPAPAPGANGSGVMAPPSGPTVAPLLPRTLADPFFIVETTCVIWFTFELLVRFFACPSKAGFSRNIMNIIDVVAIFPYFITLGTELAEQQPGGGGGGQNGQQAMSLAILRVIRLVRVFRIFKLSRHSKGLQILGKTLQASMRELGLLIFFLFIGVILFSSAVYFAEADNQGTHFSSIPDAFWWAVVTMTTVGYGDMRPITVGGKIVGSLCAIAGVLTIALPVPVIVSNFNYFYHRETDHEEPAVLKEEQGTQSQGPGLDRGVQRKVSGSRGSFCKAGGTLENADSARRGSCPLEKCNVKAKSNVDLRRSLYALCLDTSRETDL
T2 sequence (Q09470 whole entry): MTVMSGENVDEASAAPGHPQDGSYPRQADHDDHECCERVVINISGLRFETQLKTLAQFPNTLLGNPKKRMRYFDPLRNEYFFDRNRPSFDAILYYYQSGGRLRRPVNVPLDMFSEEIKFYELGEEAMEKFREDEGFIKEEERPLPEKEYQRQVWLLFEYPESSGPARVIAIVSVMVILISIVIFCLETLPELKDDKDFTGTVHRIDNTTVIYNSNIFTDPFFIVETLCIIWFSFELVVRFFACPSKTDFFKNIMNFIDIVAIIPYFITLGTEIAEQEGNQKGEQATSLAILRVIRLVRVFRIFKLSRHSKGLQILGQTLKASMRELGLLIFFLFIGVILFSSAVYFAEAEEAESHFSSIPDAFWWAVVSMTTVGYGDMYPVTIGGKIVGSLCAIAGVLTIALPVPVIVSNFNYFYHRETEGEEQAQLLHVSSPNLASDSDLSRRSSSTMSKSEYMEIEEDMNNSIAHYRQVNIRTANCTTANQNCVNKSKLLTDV

## CC[C@H](C)[C@H](NC(=O)[C@@H](N)[C@@H](C)O)C(=O)N[C@H](C(=O)N[C@@H](CC(N)=O)C(=O)N[C@H](C(=O)N[C@@H](CCCCN)C(=O)N[C@H]1CSSC[C@@H]2NC(=O)[C@H](CCCCN)NC(=O)CNC(=O)[C@H](Cc3ccc(O)cc3)NC(=O)[C@@H]3CCCN3C(=O)[C@@H]3CSSC[C@@H](C(=O)O)NC(=O)[C@H](CCCNC(=N)N)NC(=O)[C@H](CC(N)=O)NC(=O)[C@@H]4CSSC[C@H](NC(=O)[C@@H]5CCCN5C(=O)[C@@H]5CCCN5C(=O)[C@H](CC(C)C)NC(=O)[C@H](CSSC[C@H](NC(=O)[C@H](CCCCN)NC(=O)[C@H](CCCNC(=N)N)NC(=O)[C@H](CC(N)=O)NC(=O)[C@H](CCSC)NC2=O)C(=O)N[C@@H](CCCCN)C(=O)N4)NC(=O)[C@H](CCC(N)=O)NC(=O)[C@H](CCCCN)NC(=O)[C@@H]2CCCN2C(=O)[C@H](CO)NC(=O)[C@H]([C@@H](C)O)NC1=O)C(=O)N[C@@H](CCCCN)C(=O)N[C@@H](C)C(=O)N[C@@H](CCC(N)=O)C(=O)N[C@@H]([C@@H](C)O)C(=O)NCC(=O)N3)C(C)C)[C@@H](C)CC [Compound 7]
[1]; 1 mg/kg 1× daily i.v. from day −3
  relative difference of knee swelling (normalized): 0.18±0.05
[1]; 1 mg/kg 1× daily i.v., 24 h after arthritis induction
  reduction of knee swelling relative to the vehicle control group: 60%
[1]; 1 mg/kg BW i.v. 1×d1 and 1×d4, listed as cgtx-544
  effect on knee swelling after second single injection: reduced again to a significant value; also recorded: statistically significant reduction in knee swelling
[1]; listed as cgtx-544
  effect on knee swelling, curative treatment: statistically significant reduction in knee swelling
[1]; listed as cgtx-544(Mix)
  effect on knee swelling, curative treatment: clear reducing, and statistically significant effect; also recorded: significant reduction in knee joint swelling
[1]; 1 mg/kg BW i.v. from day −3
  knee joint swelling versus untreated (excipient) controls: clear reduction of the knee joint swelling
[1]; 1 mg/kg i.v. daily, start day 0 or day 1
  knee diameters after seven days of treatment, curative: nearly comparable to the non-induced, intra-individual control knee
[1]; 1 mg/kg i.v. daily, therapy started on day 0 immediately after arthritis induction
  maximal reduction of knee swelling, curative treatment: 40%
[1]; 1 mg/kg i.v. daily, therapy started on day 1
  maximal reduction of knee swelling, curative treatment: 58%
[1]; 0.1, 1 and 5 mg/kg BW i.v. daily, day −3 to day 6, vs vehicle, listed as cgtx-544
  effect on knee swelling, preventive treatment: clear reducing, dose dependent and statistically significant effect; also recorded: statistically significant reduction in knee swelling
[1]; daily i.v. from day −3
  knee diameters after seven days of treatment, preventive: nearly comparable to the non-induced, intra-individual control knee
  maximal reduction of knee swelling, preventive treatment: 70%
[1]; single i.v. injection 1 mg/kg BW on day 1 (1×d1), 24 h after application, listed as cgtx-544, 1 mg/kg
  effect on knee swelling after single injection: clear and statistically significant reduction of knee swelling; also recorded: statistically significant reduction in knee swelling; also recorded: strong and sustained effect
[2]
  selectivity for Kv1.3 vs. Kv1.1 compared to HsTx 1: higher selectivity
[2]; read-out: IC50 on Kv1.3 before the start of the plasma stability experiment, incompletely folded peptide, n=5 cells, Sf21
  IC50: 46.1 nM
[3]
  Isoelectric point: 9.29
Kv1.1
  block of Kv1.1: about 22%
[4]; 1 mg/kg 1× daily i.v.
  generalized immunosuppression: did not show a generalized immunosuppression
[4]; curative treatment, 1 mg/kg daily i.v.
  WBC, neutrophil granulocytes and lymphocytes, absolute and relative cell counts: comparable to vehicle treated individuals
[4]; preventive treatment, daily i.v. from day −3
  WBC, neutrophil granulocytes and lymphocytes, absolute and relative cell counts: comparable to vehicle treated individuals
Kv1.5
  binding to Kv1.5: no binding
Antibody formation; after 10 days under peptide therapy
  reactivity of immunized animals on cgtx-544(Mix) (anti-peptide antibodies): no reactivity
Antibody formation; seven days after arthritis induction
  suppression of B-lymphocytes and antibody formation (mBSA specific antibodies): does not seem to suppress B-lymphocytes and antibody formation
In vivo
  in vivo half-life: approximately 26 min
